Article PMC12606464, “Investigating NFE2L1 activators for targeted protein aggregate clearance: a follow-up study” (RSC Medicinal Chemistry, 2025)

System: C. elegans wild-type (N2)
Experiment: Acute juglone/paraquat-induced oxidative stress resistance in C. elegans N2
Type: in vivo, Caenorhabditis elegans
Details: for # deaths/events: over 12 hours; for Median survival: Fig. 5C
Description: Fig. 5 RUN-89 prevents protein aggregation and increases stress resistance in C. elegans. (A) The AM140 strain expressing aggregation-prone Q35-YFP was treated with 50 μM RUN-89 or the vehicle for 6 days, followed by microscopy analysis. Overall, 959 Q35-YFP foci (DMSO = 517; RUN-89 = 442) were identified in 102 animals (DMSO: N = 3 populations, n = 55 animals in total; RUN-89: N = 3 populations, n = 47 animals in total). The two dashed horizontal lines indicate the interquartile range, and the thick horizontal line represents the median. The Kolmogorov–Smirnov test verified a significant reduction of surface and integrated optical density of foci after RUN-89 treatment. (B) Representative images of two animals per treatment condition. Images were taken on the same day, using identical settings for the instruments used. (C) Protective effect of RUN-89 against juglone and paraquat-induced stress. […] The mortality was monitored hourly over a 12 hour period. […] For juglone treatment, 629 animals were examined (DMSO: N = 2 populations of 167 and 152 animals, n = 319 animals in total; RUN-89: N = 2 populations of 141 and 169 animals, n = 310 animals in total). Results were analyzed using the Kaplan–Meier method and are presented as survival percentages with standard errors. The survival curves were compared using the Gehan–Breslow–Wilcoxon test (juglone) and log-rank test (paraquat). (A and C) Detailed results of the analysis are shown in SI Tables S10 and S11. *p < 0.05, ****p < 0.001.
Next, we examined whether the compound RUN-89 protects animals from oxidative damage/death induced by increased reactive oxygen species (ROS) levels. In worms, the herbicide paraquat and the naturally occurring quinone compound juglone are well-known for inducing oxidative stress.[84] In this experiment, the wild-type (N2) strain was used, and RUN-89 was administered at a concentration of 50 μM for 24 hours. Following this pretreatment, approximately 130 animals were transferred to plates containing either 180 μM juglone or 200 μM paraquat. Worm mortality was monitored over a 12-hour period. […]
2.13 C. elegans strains and maintenance
The animals were kept at 20 °C according to standard cultivation conditions (Biron & […]
(mgIs72 [rpt-3p::GFP + dpy-5(+)] II) of Caenorhabditis elegans strains and E. coli strain OP50 were obtained from the Caenorhabditis Genetic Centre (CGC, University of Minnesota , http://cbs.umn.edu/cgc/home). […]
Kolmogorov-Smirnov test performed in GraphPad Prism (v 10.6.1).
2.15 Acute juglone/paraquat-induced oxidative stress resistance in C.
Eggs of the wild-type strain (N2) were placed in liquid S-basal medium supplemented with E. coli OP50 as a food source. Upon reaching the young adult stage, they were exposed to either 50 µM RUN 89 or an equivalent volume of solvent (control group) and incubated at 20 °C for 24 hours. Approximately 130 animals were placed on plates containing either 180 µM juglone or 200 µM paraquat to induce severe oxidative stress .(5, 6) The number of dead animals was recorded each hour throughout the 12-hour experiment. The data were then analyzed using Kaplan-Meier survival analysis, and the results were examined through this method. Su rvival curves were compared via the Gehan-Breslow-Wilcoxon test or the log-rank (Mantel-Cox) test in GraphPad Prism software ( v 10.6.1).

[1] = juglon stress, B = juglon + DMSO, C = juglon + RUN-89
[2] = paraquat stress, B = paraquat + DMSO, C = paraquat + RUN-89

Q: What does the source list for COc1ccc(/C=C2\CC(NC(=O)C3CCCC3)C/C(=C\c3ccc(OC)c(OC)c3)C2=O)cc1OC (stereo not drawn) [RUN-89]?
A: Protection against juglone-induced lethal oxidative stress (N2, 50 μM for 24 h, then 180 μM juglone, mortality over 12 h): significant protective effect; Protection against paraquat-induced lethal oxidative stress (N2, 50 μM for 24 h, then 200 μM paraquat, mortality over 12 h): significant protective effect; Ratio of median survival (reciprocal), juglon + RUN-89 / juglon + DMSO (juglon stress): 1.25; Ratio of median survival, juglon + DMSO / juglon + RUN-89 (juglon stress): 0.8; # deaths/events (juglon stress, 306 subjects at 0 h): 305; # at risk (juglon stress, 1 hour, 306 at 0 h): 306; # at risk (juglon stress, 2 hours, 306 at 0 h): 289; # at risk (juglon stress, 3 hours, 306 at 0 h): 235; # at risk (juglon stress, 4 hours, 306 at 0 h): 190; # at risk (juglon stress, 5 hours, 306 at 0 h): 164; # at risk (juglon stress, 6 hours, 306 at 0 h): 124; # at risk (juglon stress, 7 hours, 306 at 0 h): 105; # at risk (juglon stress, 8 hours, 306 at 0 h): 82; # at risk (juglon stress, 9 hours, 306 at 0 h): 37; # at risk (juglon stress, 10 hours, 306 at 0 h): 13; # at risk (juglon stress, 11 hours, 306 at 0 h): 7; # at risk (juglon stress, 12 hours, 306 at 0 h): 1; Median survival (juglon stress, juglon + DMSO median 4): 5 h; Hazard Ratio (Mantel-Haenszel) B/C [1]: 1.206; Hazard Ratio (Mantel-Haenszel) C/B [1]: 0.8295; Hazard Ratio (logrank) B/C [1]: 1.141; Hazard Ratio (logrank) C/B [1]: 0.8761; Ratio of median survival (reciprocal), paraquat + RUN-89 / paraquat + DMSO (paraquat stress): 1.4; Ratio of median survival, paraquat + DMSO / paraquat + RUN-89 (paraquat stress): 0.7143; # deaths/events (paraquat stress, 274 subjects at 0 h): 273; # at risk (paraquat stress, 1 hour, 274 at 0 h): 274; # at risk (paraquat stress, 2 hours, 274 at 0 h): 263; # at risk (paraquat stress, 3 hours, 274 at 0 h): 241; # at risk (paraquat stress, 4 hours, 274 at 0 h): 216; # at risk (paraquat stress, 5 hours, 274 at 0 h): 209; # at risk (paraquat stress, 6 hours, 274 at 0 h): 167; # at risk (paraquat stress, 7 hours, 274 at 0 h): 148; # at risk (paraquat stress, 8 hours, 274 at 0 h): 130; # at risk (paraquat stress, 9 hours, 274 at 0 h): 109; # at risk (paraquat stress, 10 hours, 274 at 0 h): 84; # at risk (paraquat stress, 11 hours, 274 at 0 h): 44; # at risk (paraquat stress, 12 hours, 274 at 0 h): 11; Median survival (paraquat stress, paraquat + DMSO median 5): 7 h; Hazard Ratio (Mantel-Haenszel) B/C [2]: 1.524; Hazard Ratio (Mantel-Haenszel) C/B [2]: 0.6563; Hazard Ratio (logrank) B/C [2]: 1.357; Hazard Ratio (logrank) C/B [2]: 0.7368
